Source: patent publication US5981574A, “Phenanthrofuran derivatives” (Phytera, Inc., priority 1998, dated 1999)

Test system: Human umbilical-vein endothelial cells (HUVEC)
Assay: Anti-angiogenic activity in Tube Formation Assay (collagen tube, 1st Assay and 2nd Assay)
Assay type: cell-based
Conditions: for inhibition at 10 µg/mL / inhibition at 30 µg/mL / inhibition at 1 µM / inhibition at 10 µM / inhibition at 1 µg/mL: Homo sapiens, HUVEC; for inhibition at 10 µg/mL: 10 μg/ml; for inhibition at 30 µg/mL: 30 μg/ml; for inhibition at 1 µM / inhibition at 10 µM: positive control
Experimental: Anti-angiogenic activity: collagen tube
Human umbilical-vein endothelial cells (HUVEC; Kurabo Industries, Ltd., Osaka, Japan) were cultured with M-199 medium (Gibco, Gaithersburg, Md.) with […], bFGF (15 ng/mL; PeproTech EC, Ltd., Princeton, N.J.) and epidermal growth factor (EGF) (15 ng/mL; Upstate Biotechnology Inc., Lake Placid, N.Y.) until they become confluent. All experiments were performed using cells that were passaged at least five times. Eight volumes of type-I collagen solution (Nitta Gelatin Inc., Osaka, Japan)were mixed with one volume of 10X M-199 medium and one volume of reconstruction buffer (0.5 N NaOH, 200 mM HEPES and 260 mM NaHCO3).
Collagen gel (300 μL/well) was placed in 24-well culture plates (NUNC) and incubated for 1.5 hours. HUVEC (1.4×10^5 /0.5 mL) were seeded in the collagen-coated plates and cultured for 2 hours at 37° C. Fifty microliters of sample were added. The collagen gel was replaced (300 μL/well), and the mixture was cultured for 1.5 hours. Three hundred fifty microliters of M-199 medium with […], 30 ng/mL basic fibroblast growth factor (bFGF) were added, and the mixture was cultured for 20 hours. One field per well was photographed with a phase-contrast microscope, and the length of the tube structures were measured on a Macintosh computer using the public domain NIH Image program (see Table 1 for results). Erbstatin was used as a positive control for inhibition of angiogenesis.

[1] = 1st Assay, 1 μg/ml, n.e.: no effect, over 100% = more inhibition than in control cultures without bFGF
[2] = 1st Assay, over 100% = more inhibition than in control cultures without bFGF
[3] = 2nd Assay, over 100% = more inhibition than in control cultures without bFGF

Compound | % of inhibition (tube formation) [1] | inhibition at 10 µg/mL [2] | inhibition at 30 µg/mL [2] | inhibition at 10 µg/mL [3] | inhibition at 30 µg/mL [3] | inhibition at 1 µM (1st Assay) | inhibition at 10 µM (1st Assay) | inhibition at 1 µM (2nd Assay) | inhibition at 10 µM (2nd Assay) | inhibition at 1 µg/mL [1] | inhibition at 1 µg/mL (2nd Assay, 1 μg/ml, over 100% = more inhibition than in control cultures without bFGF)
CC1=C(C)C2=CC(=O)c3c(c(O)c4occ(C)c4c3O)C2(C)CC1 (stereo not drawn) [Ajuforrestine A fraction, 1,11b-dihydro-7,11-dihydroxy-3,4,8,11b-tetramethyl-phenanthro[3,2-b]furan-6(2H)-one] | n.e. | 99.6% | 102% | 98% | 109% |  |  |  |  |  | 
O=CN/C=C/c1cc(O)ccc1O [Erbstatin, reference compound] |  |  |  |  |  | 7.6% | 118% | 6.7% | 108% |  | 
CC1=C(C)C2=CC(=O)c3c(c(O)c4oc(C)cc4c3O)C2(C)CC1 (stereo not drawn) [Formula I-A fraction] |  | 119% | 119% | 108% | 107% |  |  |  |  | 115% | 108%
